Measured values as given in US20230022400A1, “IMMUNOMODULATORS” (Bristol-Myers Squibb Company, priority 2019, published 2023).
Where a SMILES comes first, the peptide text is derived from it. Bridges are numbered along the chain shown (N, C = ends). [ ]: non-standard residue; d: D form. The star is where a group is joined. Trp(1-CH2CO2Me) = COC(=O)Cn1cc(C[C@H](N)C(=O)O)c2ccccc21; Trp(1-CH2COOH) = N[C@@H](Cc1cn(CC(=O)O)c2ccccc12)C(=O)O; X22 = Cc1ccc2c(c1)[nH]c1nc(Cl)nc(*)c12; Hyp = O=C(O)[C@@H]1C[C@@H](O)CN1; X8 = Cn1cnc2c(Cl)nc3sc(*)nc3c21; X10 = c1ccc2c(c1)sc1ncnc(*)c12; NMeNle = CCCC[C@H](NC)C(=O)O; X4 = c1nc(*)c2c3c(sc2n1)CCC3; NMeA = CN[C@@H](C)C(=O)O; Dab = NCC[C@H](N)C(=O)O; Dap = NC[C@H](N)C(=O)O; X6 = c1ccc2nc(*)cnc2c1; X1 = c1ccc2sc(*)nc2c1; X11 = COc1ccnc(*)n1; X12 = Brc1cnc(*)nc1

These compounds were tested against T1, PD-1/PD-L1 interaction (PD-1-Ig / PD-L1-His) (Homo sapiens, UniProt Q9NZQ7) (assay: PD-1/PD-L1 Homogenous Time-Resolved Fluorescence (HTRF) binding assay). Conditions: PD-L1-His 10 nM final, PD-1-Ig 20 nM final; inhibitors pre-incubated with PD-L1-His for 15 m.
T1 construct: TVMV protease site (linker) (C); made in house; host or cells: HEK293T cells
T1 sequence (Q9NZQ7 18-239): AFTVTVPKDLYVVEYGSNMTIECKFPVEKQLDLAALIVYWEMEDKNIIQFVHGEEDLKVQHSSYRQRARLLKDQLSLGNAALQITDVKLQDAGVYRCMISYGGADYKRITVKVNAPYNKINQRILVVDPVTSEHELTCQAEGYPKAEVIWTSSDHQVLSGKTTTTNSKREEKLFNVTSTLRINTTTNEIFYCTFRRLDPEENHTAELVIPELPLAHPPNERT
Excerpt: The ability of the compounds of formula (I) to bind to PD-L1 was investigated using a PD-1/PD-L1 Homogenous Time-Resolved Fluorescence (HTRF) binding assay.
The interaction of PD-1 and PD-L1 can be assessed using soluble, purified preparations of the extracellular domains of the two proteins. The PD-1 and PD-L1 protein extracellular domains were expressed as fusion proteins with detection tags, for PD-1, the tag was the Fc portion of Immunoglobulin (PD-1-Ig) and for PD-L1 it was the 6 histidine motif (PD-L1-His). All binding studies were performed in an HTRF assay buffer consisting of dPBS supplemented with 0.1% […] bovine serum albumin and 0.05% (v/v) Tween-20. For the h/PD-L1-His binding assay, inhibitors were pre-incubated with PD-L1-His (10 nM final) for 15 m in 4 μl of assay buffer, followed by addition of PD-1-Ig (20 nM final) in 1 μl of assay buffer and further incubation for 15 m. HTRF detection was achieved using europium crypate-labeled anti-Ig (1 nM final) and allophycocyanin (APC) labeled anti-His (20 nM final). Antibodies were diluted in HTRF detection buffer and 5 μl was dispensed on top of the binding reaction. The reaction mixture was allowed to equilibrate for 30 minutes and the resulting signal (665 nm/620 nm ratio) was obtained using an EnVision fluorometer. Additional binding assays were established between the human proteins PD-1-Ig/PD-L2-His (20 & 5 nM, respectively) and CD80-His/PD-L1-Ig (100 & 10 nM, respectively).
Recombinant Proteins: Human PD-1 (25-167) with a C-terminal human Fc domain of immunoglobulin G (Ig) epitope tag [hPD-1 (25-167)-3S-IG] and human PD-L1 (18-239) with a C-terminal His epitope tag [hPD-L1(18-239)-TVMV-His] were expressed in HEK293T cells and purified sequentially by ProteinA affinity chromatography and size exclusion chromatography. Human PD-L2-His and CD80-His was obtained through commercial sources.
Table 1 lists the IC50 values for representative examples of this disclosure measured in the PD-1/PD-L1 Homogenous Time-Resolved Fluorescence (HTRF) binding assay.

Compound	IC50
CCCC[C@H]1C(=O)N(C)[C@@H](CCCC)C(=O)N[C@@H](CC(C)C)C(=O)N[C@H](C(=O)NCC(N)=O)CSCC(=O)N[C@@H](Cc2ccc(O)cc2)C(=O)N(C)[C@@H](C)C(=O)N[C@@H](CC(N)=O)C(=O)N2CCC[C@H]2C(=O)N[C@@H](CNc2nc(Cl)nc3[nH]c4cc(C)ccc4c23)C(=O)N[C@@H](CC(C)C)C(=O)N2C[C@H](O)C[C@H]2C(=O)N[C@@H](Cc2c[nH]c3ccccc23)C(=O)N[C@@H](CCN)C(=O)N[C@@H](Cc2cn(CC(=O)O)c3ccccc23)C(=O)N1C [Compound 21007] ({CH2CO}-Y[NMeA]NP[Dap](X22)L[Hyp]W[Dab][Trp(1-CH2COOH)][NMeNle][NMeNle]LCG-NH2; thioether N-14)	4.4 nM
CCCC[C@H]1C(=O)N(C)[C@@H](CCCC)C(=O)N[C@@H](CC(C)C)C(=O)N[C@H](C(=O)NCC(N)=O)CSCC(=O)N[C@@H](Cc2ccc(O)cc2)C(=O)N(C)[C@@H](C)C(=O)N[C@@H](CC(N)=O)C(=O)N2CCC[C@H]2C(=O)N[C@@H](CNc2cnc3ccccc3n2)C(=O)N[C@@H](CC(C)C)C(=O)N2C[C@H](O)C[C@H]2C(=O)N[C@@H](Cc2c[nH]c3ccccc23)C(=O)N[C@@H](CCN)C(=O)N[C@@H](Cc2cn(CC(=O)O)c3ccccc23)C(=O)N1C [Compound 11003] ({CH2CO}-Y[NMeA]NP[Dap](X6)L[Hyp]W[Dab][Trp(1-CH2COOH)][NMeNle][NMeNle]LCG-NH2; thioether N-14)	7.1 nM
CCCC[C@H]1C(=O)N(C)[C@@H](CCCC)C(=O)N[C@@H](CC(C)C)C(=O)N[C@H](C(=O)NCC(N)=O)CSCC(=O)N[C@@H](Cc2ccc(O)cc2)C(=O)N(C)[C@@H](C)C(=O)N[C@@H](CC(N)=O)C(=O)N2CCC[C@H]2C(=O)N[C@@H](CNc2ncnc3sc4ccccc4c23)C(=O)N[C@@H](CC(C)C)C(=O)N2C[C@H](O)C[C@H]2C(=O)N[C@@H](Cc2c[nH]c3ccccc23)C(=O)N[C@@H](CCNc2ncnc3sc4ccccc4c23)C(=O)N[C@@H](Cc2cn(CC(=O)O)c3ccccc23)C(=O)N1C [Compound 21015] ({CH2CO}-Y[NMeA]NP[Dap](X10)L[Hyp]W[Dab](X10)[Trp(1-CH2COOH)][NMeNle][NMeNle]LCG-NH2; thioether N-14)	18 nM
CCCC[C@H]1C(=O)N(C)[C@@H](CCCC)C(=O)N[C@@H](CC(C)C)C(=O)N[C@H](C(=O)NCC(N)=O)CSCC(=O)N[C@@H](Cc2ccc(O)cc2)C(=O)N(C)[C@@H](C)C(=O)N[C@@H](CC(N)=O)C(=O)N2CCC[C@H]2C(=O)N[C@@H](CNc2ncnc3sc4c(c23)CCC4)C(=O)N[C@@H](CC(C)C)C(=O)N2C[C@H](O)C[C@H]2C(=O)N[C@@H](Cc2c[nH]c3ccccc23)C(=O)N[C@@H](CCN)C(=O)N[C@@H](Cc2cn(CC(=O)O)c3ccccc23)C(=O)N1C [Compound 21011] ({CH2CO}-Y[NMeA]NP[Dap](X4)L[Hyp]W[Dab][Trp(1-CH2COOH)][NMeNle][NMeNle]LCG-NH2; thioether N-14)	2.6 nM
CCCC[C@H]1C(=O)N(C)[C@@H](CCCC)C(=O)N[C@@H](CC(C)C)C(=O)N[C@H](C(=O)NCC(N)=O)CSCC(=O)N[C@@H](Cc2ccc(O)cc2)C(=O)N(C)[C@@H](C)C(=O)N[C@@H](CC(N)=O)C(=O)N2CCC[C@H]2C(=O)N[C@@H](CNc2nc3ccccc3s2)C(=O)N[C@@H](CC(C)C)C(=O)N2C[C@H](O)C[C@H]2C(=O)N[C@@H](Cc2c[nH]c3ccccc23)C(=O)N[C@@H](CCN)C(=O)N[C@@H](Cc2cn(CC(=O)O)c3ccccc23)C(=O)N1C [Compound 11012] ({CH2CO}-Y[NMeA]NP[Dap](X1)L[Hyp]W[Dab][Trp(1-CH2COOH)][NMeNle][NMeNle]LCG-NH2; thioether N-14)	7.9 nM
CCCC[C@H]1C(=O)N(C)[C@@H](CCCC)C(=O)N[C@@H](CC(C)C)C(=O)N[C@H](C(=O)NCC(N)=O)CSCC(=O)N[C@@H](Cc2ccc(O)cc2)C(=O)N(C)[C@@H](C)C(=O)N[C@@H](CC(N)=O)C(=O)N2CCC[C@H]2C(=O)N[C@@H](CNc2nccc(OC)n2)C(=O)N[C@@H](CC(C)C)C(=O)N2C[C@H](O)C[C@H]2C(=O)N[C@@H](Cc2c[nH]c3ccccc23)C(=O)N[C@@H](CCN)C(=O)N[C@@H](Cc2cn(CC(=O)O)c3ccccc23)C(=O)N1C [Compound 1001] ({CH2CO}-Y[NMeA]NP[Dap](X11)L[Hyp]W[Dab][Trp(1-CH2COOH)][NMeNle][NMeNle]LCG-NH2; thioether N-14)	5.4 nM
CCCC[C@H]1C(=O)N(C)[C@@H](CCCC)C(=O)N[C@@H](CC(C)C)C(=O)N[C@H](C(=O)NCC(N)=O)CSCC(=O)N[C@@H](Cc2ccc(O)cc2)C(=O)N(C)[C@@H](C)C(=O)N[C@@H](CC(N)=O)C(=O)N2CCC[C@H]2C(=O)N[C@@H](CNc2nc3c(nc(Cl)c4ncn(C)c43)s2)C(=O)N[C@@H](CC(C)C)C(=O)N2C[C@H](O)C[C@H]2C(=O)N[C@@H](Cc2c[nH]c3ccccc23)C(=O)N[C@@H](CCNc2nc3c(nc(Cl)c4ncn(C)c43)s2)C(=O)N[C@@H](Cc2cn(CC(=O)O)c3ccccc23)C(=O)N1C [Compound 21004] ({CH2CO}-Y[NMeA]NP[Dap](X8)L[Hyp]W[Dab](X8)[Trp(1-CH2COOH)][NMeNle][NMeNle]LCG-NH2; thioether N-14)	5.7 nM
CCCC[C@H]1C(=O)N(C)[C@@H](CCCC)C(=O)N[C@@H](CC(C)C)C(=O)N[C@H](C(=O)NCC(N)=O)CSCC(=O)N[C@@H](Cc2ccc(O)cc2)C(=O)N(C)[C@@H](C)C(=O)N[C@@H](CC(N)=O)C(=O)N2CCC[C@H]2C(=O)N[C@@H](CNc2ncc(Br)cn2)C(=O)N[C@@H](CC(C)C)C(=O)N2C[C@H](O)C[C@H]2C(=O)N[C@@H](Cc2c[nH]c3ccccc23)C(=O)N[C@@H](CCNc2ncc(Br)cn2)C(=O)N[C@@H](Cc2cn(CC(=O)O)c3ccccc23)C(=O)N1C [Compound 1010] ({CH2CO}-Y[NMeA]NP[Dap](X12)L[Hyp]W[Dab](X12)[Trp(1-CH2COOH)][NMeNle][NMeNle]LCG-NH2; thioether N-14)	4.9 nM
CCCC[C@H]1C(=O)N(C)[C@@H](CCCC)C(=O)N[C@@H](CC(C)C)C(=O)N[C@H](C(=O)NCC(N)=O)CSCC(=O)N[C@@H](Cc2ccc(O)cc2)C(=O)N(C)[C@@H](C)C(=O)N[C@@H](CC(N)=O)C(=O)N2CCC[C@H]2C(=O)N[C@@H](CNc2nc3ccccc3s2)C(=O)N[C@@H](CC(C)C)C(=O)N2C[C@H](O)C[C@H]2C(=O)N[C@@H](Cc2c[nH]c3ccccc23)C(=O)N[C@@H](CCN)C(=O)N[C@@H](Cc2cn(CC(=O)OC)c3ccccc23)C(=O)N1C [Compound 11004] ({CH2CO}-Y[NMeA]NP[Dap](X1)L[Hyp]W[Dab][Trp(1-CH2CO2Me)][NMeNle][NMeNle]LCG-NH2; thioether N-14)	5.6 nM
CCCC[C@H]1C(=O)N(C)[C@@H](CCCC)C(=O)N[C@@H](CC(C)C)C(=O)N[C@H](C(=O)NCC(N)=O)CSCC(=O)N[C@@H](Cc2ccc(O)cc2)C(=O)N(C)[C@@H](C)C(=O)N[C@@H](CC(N)=O)C(=O)N2CCC[C@H]2C(=O)N[C@@H](CNc2nc3ccccc3s2)C(=O)N[C@@H](CC(C)C)C(=O)N2C[C@H](O)C[C@H]2C(=O)N[C@@H](Cc2c[nH]c3ccccc23)C(=O)N[C@@H](CCN)C(=O)N[C@@H](Cc2cn(CC(=O)O)c3ccccc23)C(=O)N1C [Compound 11001] ({CH2CO}-Y[NMeA]NP[Dap](X1)L[Hyp]W[Dab][Trp(1-CH2COOH)][NMeNle][NMeNle]LCG-NH2; thioether N-14)	4 nM
